Source: PubChem BioAssay AID298 (DTP/NCI, 2004)
“And” between values parts separate entries of the source, which are not always exact repeats. Equal values may be shown once. Results filed as inconclusive are left out.

Test system: MX-1 breast xenograft, intrarenal, nude mice, tumor weight
Experiment: NCI In Vivo Anticancer Drug Screen. Data for tumor model Human Mammary Carcinoma MX-1 Xenograft (intrarenal inoculation) in NU/NU BALB/C (nude) mice
Details: endpoint: mean tumor weight change, higher = larger tumour
Experimental: The antitumor activity of compounds was measured in mice bearing transplantable tumors. Survival or tumor size were measured and the results are expressed as the measurement made in the treated group (T) divided by the measurement made in the vehicle treated control group (C). The tumor model used in this assay is Human Mammary Carcinoma MX-1 Xenograft (intrarenal inoculation) in NU/NU BALB/C (nude) mice

[1] = dose: 300.0 mg/kg/injection, schedule: Q04DX003 (sc), vehicle: Klucel (hydroxypropylcellulose) (HPC)
[2] = dose: 600.0 mg/kg/injection, schedule: Q04DX003 (sc), vehicle: Klucel (hydroxypropylcellulose) (HPC)
[3] = dose: 1200.0 mg/kg/injection, schedule: Q04DX003 (sc), vehicle: Klucel (hydroxypropylcellulose) (HPC)
[4] = dose: 2400.0 mg/kg/injection, schedule: Q04DX003 (sc), vehicle: Klucel (hydroxypropylcellulose) (HPC)
[5] = dose: 150.0 mg/kg/injection, schedule: Q04DX003 (sc), vehicle: saline
[6] = dose: 300.0 mg/kg/injection, schedule: Q04DX003 (sc), vehicle: saline
[7] = dose: 600.0 mg/kg/injection, schedule: Q04DX003 (sc), vehicle: saline
[8] = dose: 150.0 mg/kg/injection, schedule: Q04DX003 (sc), vehicle: Klucel (hydroxypropylcellulose) (HPC)

In the case of `CCN(CC)CCn1[nH]c2c3ccc(=O)cc3sc3c(NCCN)ccc1c32`, the T/C (dose: 3.12 mg/kg/injection, schedule: Q04DX003 (ip), vehicle: water) is reported as 26 % of control and 40 % of control, the T/C (dose: 6.25 mg/kg/injection, schedule: Q04DX003 (ip), vehicle: water) is reported as 35 % of control and 38 % of control and 42 % of control and the T/C (dose: 25.0 mg/kg/injection, schedule: Q04DX003 (ip), vehicle: water) is reported as 50 % of control.

For `C=C/C(C)=C/[C@H](C)C(=O)C[C@H](O)CC1CC(=O)NC(=O)C1`, the T/C (dose: 300.5 mg/kg/injection, schedule: Q04DX003 (sc), vehicle: water) was 73 % of control, the T/C (dose: 600.0 mg/kg/injection, schedule: Q04DX003 (sc), vehicle: water) was 98 % of control and the T/C (dose: 1200.0 mg/kg/injection, schedule: Q04DX003 (sc), vehicle: water) was 89 % of control.

In the case of `CC1=CC(=Nc2ccc(N(CCCl)CCCl)cc2)C=C(C)C1=O`, the T/C [1] is reported as -11 % of control, the T/C [2] is reported as -12 % of control and the T/C [3] is reported as 1 % of control. For the same compound, the T/C [4] was -20 % of control.

With `COc1cc2c(c3c1c(=O)c1cccc(F)c1n3C)C=CC(C)(C)O2` the T/C (dose: 75.0 mg/kg/injection, schedule: Q04DX003 (ip), vehicle: Klucel (hydroxypropylcellulose) (HPC)) was 46 % of control.

With `COC12[C@@H]3N[C@@H]3CN1C1=C(C(=O)C(NCCSSCCNC3=C(C)C(=O)C4=C(C3=O)C(COC(N)=O)[C@]3(OC)C5N[C@@H]5CN43)=C(C)C1=O)[C@@H]2COC(N)=O` (stereo not given in full) the T/C (dose: 3.12 mg/kg/injection, schedule: Q04DX003 (ip), vehicle: DMSO) was 24 % of control and the T/C (dose: 6.25 mg/kg/injection, schedule: Q04DX003 (ip), vehicle: DMSO) was -41 % of control.

`O=C(O)c1cc(C(=O)O)c(C(=O)O)cc1C(=O)O.[NH2-].[NH2-].[NH2-].[NH2-].[Pt+2].[Pt+2]` was tested, and the T/C (dose: 10.0 mg/kg/injection, schedule: Q04DX003 (ip), vehicle: water) was 81 % of control, the T/C (dose: 20.0 mg/kg/injection, schedule: Q04DX003 (ip), vehicle: water) was 42 % of control and the T/C (dose: 40.0 mg/kg/injection, schedule: Q04DX003 (ip), vehicle: water) was 12 % of control.

For `Cc1ccc(S(=O)(=O)NC(=O)C2C(=O)CC3(CCCCC3)CC2=O)cc1`, the T/C [1] was 81 % of control, the T/C [2] was 95 % of control and the T/C [3] was 121 % of control. The T/C [4] was 117 % of control.

`C/C=C(\C)c1cc(=O)c2c(C)cc3c(c2o1)C(=O)c1c(O)c(C2CC(C)(N(C)C)C(OC(C)=O)C(C)O2)cc(C2CC(N(C)C)C(O)C(C)O2)c1C3=O` (stereo not given) was tested, and the T/C (dose: 2.5 mg/kg/injection, schedule: Q04DX003 (sc), vehicle: saline) was 91 % of control and the T/C (dose: 40.0 mg/kg/injection, schedule: Q04DX003 (sc), vehicle: saline) was 39 % of control and 43 % of control.

For `CN(C)C1C(=O)C(C(=O)NP(=O)(NCCCO)N(CCCl)CCCl)=C(O)C2(O)C(=O)C3=C(O)c4c(O)cccc4C(C)(O)C3CC12` (stereo not given), the T/C (dose: 300.0 mg/kg/injection, schedule: Q04DX003 (sc), vehicle: saline with Tween-80) was -100 % of control and -98 % of control and the T/C (dose: 600.0 mg/kg/injection, schedule: Q04DX003 (sc), vehicle: saline with Tween-80) was -100 % of control.

`CCOC(=O)C1=C(Nc2ccc(OC)cc2)C(N)=NC1=N` was tested, and the T/C (dose: 37.5 mg/kg/injection, schedule: Q04DX003 (ip), vehicle: suspension in saline) was 76 % of control, the T/C (dose: 75.0 mg/kg/injection, schedule: Q04DX003 (ip), vehicle: suspension in saline) was 82 % of control and the T/C (dose: 150.0 mg/kg/injection, schedule: Q04DX003 (ip), vehicle: suspension in saline) was 79 % of control and 103 % of control. For the same compound, the T/C (dose: 300.0 mg/kg/injection, schedule: Q04DX003 (ip), vehicle: suspension in saline) was 47 % of control and 50 % of control and the T/C (dose: 600.0 mg/kg/injection, schedule: Q04DX003 (ip), vehicle: suspension in saline) was 32 % of control.

With `O=C(Nc1cccc(O)c1)C(Cl)=C(Cl)Cl` the T/C (dose: 6.25 mg/kg/injection, schedule: Q04DX003 (ip), vehicle: other) was 66 % of control, the T/C (dose: 12.5 mg/kg/injection, schedule: Q04DX003 (ip), vehicle: DMSO) was 112 % of control and the T/C (dose: 12.5 mg/kg/injection, schedule: Q04DX003 (ip), vehicle: other) was 68 % of control. For the same compound, the T/C (dose: 25.0 mg/kg/injection, schedule: Q04DX003 (ip), vehicle: DMSO) was 116 % of control, the T/C (dose: 25.0 mg/kg/injection, schedule: Q04DX003 (ip), vehicle: other) was 45 % of control and the T/C (dose: 50.0 mg/kg/injection, schedule: Q04DX003 (ip), vehicle: DMSO) was 47 % of control.

For `NC(=O)c1c[se]c(C2OC(CO)C(O)C2O)n1` (stereo not given), the T/C (dose: 75.0 mg/kg/injection, schedule: Q04DX003 (ip), vehicle: water) was 88 % of control, the T/C (dose: 150.0 mg/kg/injection, schedule: Q04DX003 (ip), vehicle: water) was 61 % of control and the T/C (dose: 300.0 mg/kg/injection, schedule: Q04DX003 (ip), vehicle: water) was 50 % of control. For the same compound, the T/C (dose: 600.0 mg/kg/injection, schedule: Q04DX003 (ip), vehicle: water) was 43 % of control.

`CC(C)C(N)C(=O)Nc1nncs1` (stereo not given) was tested, and the T/C [5] was 73 % of control, the T/C [6] was 77 % of control and the T/C [7] was 86 % of control. For the same compound, the T/C (dose: 1200.0 mg/kg/injection, schedule: Q04DX003 (sc), vehicle: saline) was 46 % of control.

`CC[C@@H](C)[C@H]([C@H](CC(=O)N1CCC[C@@H]1[C@@H](OC)[C@H](C)C(=O)N[C@H](Cc1ccccc1)c1nccs1)OC)N(C)C(=O)[C@H](NC(=O)[C@@H](C(C)C)N(C)C)C(C)C` was tested, and the T/C (dose: 13.0 micrograms/kg/injection, schedule: Q04DX003 (ip), vehicle: saline + alcohol) was 61 % of control, the T/C (dose: 26.0 micrograms/kg/injection, schedule: Q04DX003 (ip), vehicle: saline + alcohol) was 50 % of control and the T/C (dose: 52.0 micrograms/kg/injection, schedule: Q04DX003 (ip), vehicle: saline + alcohol) was 14 % of control.

For `CNc1ncn(-c2c(C)cccc2C)c(=O)n1`, the T/C (dose: 150.0 mg/kg/injection, schedule: Q04DX003 (ip), vehicle: saline with Tween-80) was 92 % of control and 97 % of control, the T/C (dose: 300.0 mg/kg/injection, schedule: Q04DX003 (ip), vehicle: saline with Tween-80) was 77 % of control and the T/C (dose: 600.0 mg/kg/injection, schedule: Q04DX003 (ip), vehicle: saline with Tween-80) was 25 % of control.

In the case of `COc1cc(C2=NCCc3cc4c(cc32)OCO4)cc(OC)c1OC`, the T/C (dose: 75.0 mg/kg/injection, schedule: Q04DX003 (ip), vehicle: saline + alcohol) is reported as 116 % of control and the T/C (dose: 150.0 mg/kg/injection, schedule: Q04DX003 (ip), vehicle: saline + alcohol) is reported as 99 % of control.

`C1CC[N-]CC1.C1CC[N-]CC1.C1CC[N-]CC1.[Cl][Rh]([Cl])[Cl]` was tested, and the T/C (dose: 75.0 mg/kg/injection, schedule: Q04DX003 (sc), vehicle: saline) was 90 % of control, the T/C [5] was 90 % of control and the T/C [6] was 75 % of control.

`O=C/C(Cl)=C(/Cl)C(=O)O` was tested, and the T/C (dose: 10.0 mg/kg/injection, schedule: Q01DX010 (sc), vehicle: saline with Tween-80) was 87 % of control, the T/C (dose: 20.0 mg/kg/injection, schedule: Q01DX010 (sc), vehicle: saline with Tween-80) was 36 % of control and the T/C (dose: 40.0 mg/kg/injection, schedule: Q01DX010 (sc), vehicle: saline with Tween-80) was 41 % of control.

In the case of `COC1C(CO)OC(n2cnc3c(=S)nc(N)[nH]c32)C1O` (stereo not given), the T/C [8] is reported as 105 % of control and the T/C [1] is reported as 48 % of control.

In the case of `CC(=O)O[C@H]1C(=O)[C@@]2(C)C(C(OC(=O)c3ccccc3)[C@]3(O)C[C@H](OC(=O)C(O)C(NC(=O)c4ccccc4)c4ccccc4)C(C)=C1C3(C)C)C1(OC(C)=O)COC1C[C@@H]2OC(=O)CN(C)C` (stereo not given in full) (tested in a mixture with another compound), the T/C (dose: 4.13 mg/kg/injection, schedule: Q01DX009 (ip), vehicle: water) is reported as 34 % of control, the T/C (dose: 8.25 mg/kg/injection, schedule: Q01DX009 (ip), vehicle: water) is reported as 23 % of control and the T/C (dose: 16.5 mg/kg/injection, schedule: Q01DX009 (ip), vehicle: water) is reported as -93 % of control. The T/C (dose: 33.0 mg/kg/injection, schedule: Q01DX009 (ip), vehicle: water) was -100 % of control.

`COc1ccc(S(=O)(=O)N/N=C/C(=O)O)cc1` was tested, and the T/C (dose: 25.0 mg/kg/injection, schedule: Q01DX010 (sc), vehicle: saline with Tween-80) was 79 % of control, the T/C (dose: 50.0 mg/kg/injection, schedule: Q01DX010 (sc), vehicle: saline with Tween-80) was 59 % of control and the T/C (dose: 100.0 mg/kg/injection, schedule: Q01DX010 (sc), vehicle: saline with Tween-80) was 8 % of control.

For `COC1C(OC(=O)/C=C/C=C/C=C/C=C/C(=O)O)CCC2(CO2)C1C1(C)OC1CC=C(C)C` (stereo not given), the T/C [5] was 102 % of control, the T/C [6] was 96 % of control and the T/C [7] was 62 % of control.

`CCCCCCCCCCCCCCCCP(=O)(OCCOCCCCCC)OCCOCCCCCC` was tested, and the T/C [5] was 102 % of control, the T/C [6] was 97 % of control and the T/C [7] was 70 % of control.

With `CC1(C)CC(=O)C(CSC(=O)c2ccccc2)C(=O)C1` the T/C (dose: 75.0 mg/kg/injection, schedule: Q04DX003 (sc), vehicle: Klucel (hydroxypropylcellulose) (HPC)) was 101 % of control, the T/C [8] was 101 % of control and the T/C [1] was 101 % of control.
